Reference: PubChem BioAssay AID256 (DTP/NCI, 2004)
Several values for one entry are separate records, joined by “and”; a condition that tells them apart may be missing. Equal entries are not always repeated. Inconclusive results and toxic doses are left out.

Tested on: CD2F1 mice, L1210 leukemia ip, survival T/C
Assay: NCI In Vivo Anticancer Drug Screen. Data for tumor model L1210 Leukemia (intraperitoneal) in CD2F1 (CDF1) mice
Conditions: higher = longer survival
In short: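 Tumor-bearing mice (transplanted tumor) were split into treated and vehicle control groups, and the measured endpoint of each treated group was divided by that of its vehicle controls.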

[1] = endpoint: mean survival time, dose: 25.0 mg/kg/injection, schedule: Q01DX009 (ip), vehicle: saline with Tween-80
[2] = endpoint: mean survival time, dose: 100.0 mg/kg/injection, schedule: Q01DX009 (ip), vehicle: saline with Tween-80
[3] = endpoint: mean survival time, dose: 200.0 mg/kg/injection, schedule: Q01DX009 (ip), vehicle: saline with Tween-80
[4] = endpoint: mean survival time, dose: 100.0 mg/kg/injection, schedule: Q01DX001 (ip), vehicle: saline with Tween-80
[5] = endpoint: mean survival time, dose: 200.0 mg/kg/injection, schedule: Q01DX001 (ip), vehicle: saline with Tween-80
[6] = endpoint: mean survival time, dose: 400.0 mg/kg/injection, schedule: Q01DX001 (ip), vehicle: saline with Tween-80

## Cc1cc(NCCCCCCCNc2cc(C)nc3cc(N)ccc23)c2ccc(N)cc2n1
endpoint: mean survival time, dose: 0.78 mg/kg/injection, schedule: Q01DX009 (ip), vehicle: saline with Tween-80
  T/C: 123 % of control and 110 % of control
endpoint: mean survival time, dose: 1.56 mg/kg/injection, schedule: Q01DX009 (ip), vehicle: saline with Tween-80
  T/C: 121 % of control and 123 % of control
endpoint: mean survival time, dose: 6.25 mg/kg/injection, schedule: Q01DX009 (ip), vehicle: saline with Tween-80
  T/C: 153 % of control
endpoint: mean survival time, dose: 12.5 mg/kg/injection, schedule: Q01DX009 (ip), vehicle: saline with Tween-80
  T/C: 157 % of control and 183 % of control
[1]
  T/C: 104 % of control
endpoint: median survival time, dose: 0.78 mg/kg/injection, schedule: Q01DX009 (ip), vehicle: distilled water + Tween-80
  T/C: 119 % of control
endpoint: median survival time, dose: 0.78 mg/kg/injection, schedule: Q01DX009 (ip), vehicle: other
  T/C: 113 % of control
endpoint: median survival time, dose: 1.56 mg/kg/injection, schedule: Q01DX009 (ip), vehicle: distilled water + Tween-80
  T/C: 121 % of control
endpoint: median survival time, dose: 1.56 mg/kg/injection, schedule: Q01DX009 (ip), vehicle: other
  T/C: 120 % of control
endpoint: median survival time, dose: 6.25 mg/kg/injection, schedule: Q01DX009 (ip), vehicle: other
  T/C: 150 % of control
endpoint: median survival time, dose: 6.25 mg/kg/injection, schedule: Q01DX009 (ip), vehicle: water
  T/C: 157 % of control
endpoint: median survival time, dose: 12.5 mg/kg/injection, schedule: Q01DX009 (ip), vehicle: distilled water + Tween-80
  T/C: 167 % of control
endpoint: median survival time, dose: 12.5 mg/kg/injection, schedule: Q01DX009 (ip), vehicle: other
  T/C: 170 % of control
endpoint: median survival time, dose: 12.5 mg/kg/injection, schedule: Q01DX009 (ip), vehicle: water
  T/C: 180 % of control

## O=C(O)CCCSc1nc2ccccc2s1
[2]
  T/C: 98 % of control
endpoint: mean survival time, dose: 100.0 mg/kg/injection, schedule: Q04DX003 (ip), vehicle: saline with Tween-80
  T/C: 95 % of control
[3]
  T/C: 97 % of control
endpoint: mean survival time, dose: 200.0 mg/kg/injection, schedule: Q04DX003 (ip), vehicle: saline with Tween-80
  T/C: 98 % of control
endpoint: mean survival time, dose: 400.0 mg/kg/injection, schedule: Q01DX009 (ip), vehicle: saline with Tween-80
  T/C: 105 % of control
endpoint: mean survival time, dose: 400.0 mg/kg/injection, schedule: Q04DX003 (ip), vehicle: saline with Tween-80
  T/C: 98 % of control

## CCOC(=O)CN(c1c(C)cc([N+](=O)[O-])c2ccccc12)S(=O)(=O)c1ccccc1
[4]
  T/C: 97 % of control
[5]
  T/C: 94 % of control
[6]
  T/C: 96 % of control

## O=C1N[C@H]2[C@H](CS[C@H]2CCCCC(=O)N(CCP(c2ccccc2)c2ccccc2)CCP(c2ccccc2)c2ccccc2)N1
endpoint: median survival time, dose: 25.0 mg/kg/injection, schedule: Q01DX009 (ip), vehicle: Klucel (hydroxypropylcellulose) (HPC)
  T/C: 100 % of control and 107 % of control
endpoint: median survival time, dose: 50.0 mg/kg/injection, schedule: Q01DX009 (ip), vehicle: Klucel (hydroxypropylcellulose) (HPC)
  T/C: 98 % of control and 107 % of control
endpoint: median survival time, dose: 100.0 mg/kg/injection, schedule: Q01DX009 (ip), vehicle: Klucel (hydroxypropylcellulose) (HPC)
  T/C: 103 % of control and 109 % of control
endpoint: median survival time, dose: 200.0 mg/kg/injection, schedule: Q01DX009 (ip), vehicle: Klucel (hydroxypropylcellulose) (HPC)
  T/C: 97 % of control and 110 % of control
endpoint: median survival time, dose: 400.0 mg/kg/injection, schedule: Q01DX009 (ip), vehicle: Klucel (hydroxypropylcellulose) (HPC)
  T/C: 90 % of control and 108 % of control

## CCOC(=O)C(=C=C(C(=O)OCC)C(=O)OCC)C(=O)OCC
endpoint: mean survival time, dose: 25.0 mg/kg/injection, schedule: Q01DX005 (ip), vehicle: saline with Tween-80
  T/C: 97 % of control
[1]
  T/C: 95 % of control
endpoint: mean survival time, dose: 25.0 mg/kg/injection, schedule: Q04DX002 (ip), vehicle: saline with Tween-80
  T/C: 103 % of control
endpoint: mean survival time, dose: 50.0 mg/kg/injection, schedule: Q01DX005 (ip), vehicle: saline with Tween-80
  T/C: 92 % of control and 97 % of control
endpoint: mean survival time, dose: 50.0 mg/kg/injection, schedule: Q01DX009 (ip), vehicle: saline with Tween-80
  T/C: 98 % of control
endpoint: mean survival time, dose: 50.0 mg/kg/injection, schedule: Q04DX002 (ip), vehicle: saline with Tween-80
  T/C: 88 % of control and 106 % of control
endpoint: mean survival time, dose: 100.0 mg/kg/injection, schedule: Q01DX005 (ip), vehicle: saline with Tween-80
  T/C: 94 % of control
[2]
  T/C: 95 % of control
endpoint: mean survival time, dose: 100.0 mg/kg/injection, schedule: Q04DX002 (ip), vehicle: saline with Tween-80
  T/C: 103 % of control and 106 % of control
endpoint: mean survival time, dose: 200.0 mg/kg/injection, schedule: Q01DX005 (ip), vehicle: saline with Tween-80
  T/C: 86 % of control and 94 % of control
[3]
  T/C: 91 % of control
endpoint: mean survival time, dose: 200.0 mg/kg/injection, schedule: Q04DX002 (ip), vehicle: saline with Tween-80
  T/C: 95 % of control and 98 % of control
endpoint: mean survival time, dose: 400.0 mg/kg/injection, schedule: Q04DX002 (ip), vehicle: saline with Tween-80
  T/C: 98 % of control

## C#CCOC(=O)Nc1ccccc1Cl
endpoint: mean survival time, dose: 100.0 mg/kg/injection, schedule: Q04DX003 (ip), vehicle: Klucel (hydroxypropylcellulose) (HPC)
  T/C: 93 % of control
endpoint: mean survival time, dose: 200.0 mg/kg/injection, schedule: Q04DX003 (ip), vehicle: Klucel (hydroxypropylcellulose) (HPC)
  T/C: 105 % of control
endpoint: mean survival time, dose: 400.0 mg/kg/injection, schedule: Q04DX003 (ip), vehicle: Klucel (hydroxypropylcellulose) (HPC)
  T/C: 98 % of control

## CCOC(=O)C(=O)NCCc1ccc2c(c1)OCO2
[4]
  T/C: 97 % of control
[5]
  T/C: 95 % of control
[6]
  T/C: 100 % of control
